The values below come from patent publication US20170355687A1, “ANTIBACTERIAL BENZOTHIAZOLE DERIVATIVES” (Actelion Pharmaceuticals Ltd, priority 2014, published 2017).

The structures appear in SMILES notation. In brackets after ≈: the same amount, converted by molar mass.

What all share (experiment): Bacterial growth minimal inhibitory concentration, microdilution in cation-adjusted Mueller-Hinton Broth (CLSI M7-A7)
What all share (type): cell-based
A general note: Dilution methods test growth across graded concentrations, often in twofold steps.

In assay [1] the test system is E. coli ATCC25922. To be noted: Escherichia coli, ATCC25922; quinolone-sensitive strain; read-out: MIC for E. coli ATCC25922. The method, then:
(§1) Minimal Inhibitory Concentrations (MICs; mg/L) were determined in cation-adjusted Mueller-Hinton Broth by a microdilution method following the description given in “Methods for Dilution Antimicrobial Susceptibility Tests for Bacteria that Grow Aerobically”, Approved standard, 7th ed., Clinical and Laboratory Standards Institute (CLSI) Document M7-A7, Wayne, Pa., USA (2006).
(§2) All Example compounds were tested against several Gram-positive and Gram-negative bacteria. […] K pneumoniae A-651 is a multiply-resistant (in particular quinolone-resistant) strain, while E. coli ATCC25922 and P. aeruginosa ATCC27853 are quinolone-sensitive strains.

The test system of assay [2] is P. aeruginosa ATCC27853. To be noted: Pseudomonas aeruginosa, ATCC27853; quinolone-sensitive strain; read-out: MIC for P. aeruginosa ATCC27853. The procedure:
as §1, §2

Assay [3] deals with K. Pneumoniae A-651. To be noted: Klebsiella pneumoniae; multiply-resistant (in particular quinolone-resistant) strain; read-out: MIC for K. Pneumoniae A-651. The procedure: as §1, §2

What is called MIC is the lowest concentration that inhibits growth of the organism. Take `C[C@@](CCc1nc2ccc(C#CC#C[C@@H]3CC[C@@H](N)CO3)cc2s1)(C(=O)NO)S(C)(=O)=O` [Example 16, (R)-4-(6-(((2S,5R)-5-aminotetrahydro-2H-pyran-2-yl)buta-1,3-diyn-1yl)benzo[d]thiazol-2-yl)-N-hydroxy-2-methyl-2-(methylsulfonyl)butanamide]: the MIC is 4 µg/mL (≈ 8.41 µM) in assay [1], 4 µg/mL (≈ 8.41 µM) in assay [2] and 8 µg/mL (≈ 16.8 µM) in assay [3].

Consider `CN(C)CC#CC#Cc1ccc2nc(CC[C@](C)(C(=O)NO)S(C)(=O)=O)sc2c1` [Example 17, (R)-4-(6-(5-(dimethylamino)penta-1,3-diyn-1-yl)benzo[d]thiazol-2-yl)-N-hydroxy-2-methyl-2-(methylsulfonyl)butanamide], for which the MIC in assay [1] came to 0.125 µg/mL (≈ 0.288 µM); in assay [2], 2 µg/mL (≈ 4.61 µM); in assay [3], 0.25 µg/mL (≈ 0.577 µM).

For the compound `C[C@@](CCc1nc2ccc(C#CC#CC3(O)CCOCC3)cc2s1)(C(=O)NO)S(C)(=O)=O` [Example 18, (R)-N-hydroxy-4-(6-((4-hydroxytetrahydro-2H-pyran-4-yl)buta-1,3-diyn-1-yl)benzo[d]thiazol-2-yl)-2-methyl-2-(methylsulfonyl)butanamide], the MIC in assay [1] was found to be 1 µg/mL (≈ 2.1 µM); in assay [2] it was 2 µg/mL (≈ 4.2 µM); in assay [3], 2 µg/mL (≈ 4.2 µM).

In the case of `C[C@@](CCc1nc2ccc(C#CC#CC3CCNCC3)cc2s1)(C(=O)NO)S(C)(=O)=O` [Example 19, (R)-N-hydroxy-2-methyl-2-(methylsulfonyl)-4-(6-(piperidin-4-ylbuta-1,3-diyn-1-yl)benzo[d]thiazol-2-yl)butanamide], the MIC in assay [1] is 8 µg/mL (≈ 17.4 µM); in assay [2] it was 4 µg/mL (≈ 8.7 µM); in assay [3] it was 16 µg/mL (≈ 34.8 µM).

Regarding `C[C@@](CCc1nc2ccc(C#CC#CC3(CO)COC3)cc2s1)(C(=O)NO)S(C)(=O)=O` [Example 20, (R)-N-hydroxy-4-(6-((3-(hydroxymethyl)oxetan-3-yl)buta-1,3-diyn-1-yl)benzo[d]thiazol-2-yl)-2-methyl-2-(methylsulfonyl)butanamide], the MIC in assay [1] was 0.5 µg/mL (≈ 1.08 µM); in assay [2], 1 µg/mL (≈ 2.16 µM); in assay [3], 0.5 µg/mL (≈ 1.08 µM).

`C[C@@](CCc1nc2ccc(C#CC#CC3CCN(C(=O)CO)CC3)cc2s1)(C(=O)NO)S(C)(=O)=O` [Example 22, (R)-N-hydroxy-4-(6-((1-(2-hydroxyacetyl)piperidin-4-yl)buta-1,3-diyn-1-yl)benzo[d]thiazol-2-yl)-2-methyl-2-(methylsulfonyl)butanamide]: the minimum inhibitory concentration (MIC) was found to be 0.5 µg/mL (≈ 0.966 µM) in assay [1], 2 µg/mL (≈ 3.86 µM) in assay [2] and 1 µg/mL (≈ 1.93 µM) in assay [3].

For the compound `C[C@@](CCc1nc2ccc(C#CC#CC3CN(C(=O)CO)C3)cc2s1)(C(=O)NO)S(C)(=O)=O` [Example 25, (R)-N-hydroxy-4-(6-((1-(2-hydroxyacetyl)azetidin-3-yl)buta-1,3-diyn-1-yl)benzo[d]thiazol-2-yl)-2-methyl-2-(methylsulfonyl)butanamide], the figures for the MIC in assay [1], in assay [2] and in assay [3] were 0.5 µg/mL (≈ 1.02 µM), 1 µg/mL (≈ 2.04 µM) and 1 µg/mL (≈ 2.04 µM), respectively.

Consider `C[C@]1(CO)C[C@@H]1C#CC#Cc1ccc2nc(CC[C@](C)(C(=O)NO)S(C)(=O)=O)sc2c1` [Example 26, (R)-N-hydroxy-4-(6-(((1R,2S)-2-(hydroxymethyl)-2-methylcyclopropyl)buta-1,3-diyn-1-yl)benzo[d]thiazol-2-yl)-2-methyl-2-(methylsulfonyl)butanamide], for which the MIC worked out at 0.063 µg/mL (≈ 0.137 µM) in assay [1], 0.5 µg/mL (≈ 1.09 µM) in assay [2] and 0.125 µg/mL (≈ 0.271 µM) in assay [3].

`C[C@@](CCc1nc2ccc(C#CC#C[C@H]3C[C@]3(F)CO)cc2s1)(C(=O)NO)S(C)(=O)=O` [Example 27, (R)-4-(6-(((1R,2R)-2-fluoro-2-(hydroxymethyl)cyclopropyl)buta-1,3-diyn-1-yl)benzo[d]thiazol-2-yl)-N-hydroxy-2-methyl-2-(methylsulfonyl)butanamide]: the minimal inhibitory concentration (MIC) in assay [1] came to 0.063 µg/mL (≈ 0.136 µM); in assay [2], 0.25 µg/mL (≈ 0.538 µM); in assay [3] it was 0.125 µg/mL (≈ 0.269 µM).
